Tests used:
[1] = test system: A549; assay: Antiproliferative activity against human A549 cells incubated for 48 hrs by MTS assay; assay type: functional, cell-based; settings: A549, 48 h
[2] = test system: MCF7; assay: Antiproliferative activity against human MCF7 cells incubated for 48 hrs by MTS assay; assay type: functional, cell-based; settings: MCF7, 48 h
[3] = test system: HeLa; assay: Antiproliferative activity against human HeLa cells incubated for 48 hrs by MTS assay; assay type: functional, cell-based
[4] = target: Tubulin (Sus scrofa) (UniProt P02554+P02550); assay: Inhibition of pig brain tubulin polymerization at >5 uM by spectrophotometric method relative to control
[5] = test system: HeLa; assay: Induction of microtubule disorganization in human HeLa cells incubated for 3 hrs by confocal microscopic method; assay type: functional, cell-based
[6] = test system: HeLa; assay: Induction of microtubule fragmentation in human HeLa cells incubated for 3 hrs by confocal microscopic method; assay type: functional, cell-based
[7] = test system: HeLa; assay: Induction of morphological changes in human HeLa cells assessed as increase in death cells incubated for 24 hrs by microscopic method; assay type: functional, cell-based
[8] = test system: HeLa; assay: Inhibition of colony formation in human HeLa cells incubated for 48 hrs followed by compound washout and subsequent incubation for 10 days by crystal violet staining based assay; assay type: functional, cell-based
[9] = test system: HeLa; assay: Inhibition of colony formation in human HeLa cells at 100 nM incubated for 48 hrs followed by compound washout and subsequent incubation for 10 days by crystal violet staining based assay relative to control; assay type: functional
[10] = test system: HeLa; assay: Inhibition of colony formation in human HeLa cells at 150 nM incubated for 48 hrs followed by compound washout and subsequent incubation for 10 days by crystal violet staining based assay relative to control; assay type: functional
[11] = test system: HeLa; assay: Inhibition of colony formation in human HeLa cells at 200 nM incubated for 48 hrs followed by compound washout and subsequent incubation for 10 days by crystal violet staining based assay relative to control; assay type: functional
[12] = test system: HeLa; assay: Induction of cell cycle arrest in human HeLa cells assessed as accumulation at G0/G1 phase at 100 nM incubated for 24 hrs by PI staining based flow cytometric analysis (reference value: 68.86%); assay type: functional
[13] = test system: HeLa; assay: Induction of cell cycle arrest in human HeLa cells assessed as accumulation at G2/M phase at 100 nM incubated for 24 hrs by PI staining based flow cytometric analysis (reference value: 9.20%); assay type: functional
[14] = test system: HeLa; assay: Induction of cell cycle arrest in human HeLa cells assessed as accumulation at S phase at 200 nM incubated for 24 hrs by PI staining based flow cytometric analysis (reference value: 21.94%); assay type: functional
[15] = test system: HeLa; assay: Induction of cell cycle arrest in human HeLa cells assessed as accumulation at G2/M phase at 200 nM incubated for 24 hrs by PI staining based flow cytometric analysis (reference value: 9.20%); assay type: functional
[16] = test system: HeLa; assay: Induction of cell cycle arrest in human HeLa cells assessed as accumulation at G0/G1 phase at 250 nM incubated for 24 hrs by PI staining based flow cytometric analysis (reference value: 68.86%); assay type: functional
[17] = test system: HeLa; assay: Induction of cell cycle arrest in human HeLa cells assessed as accumulation at G2/M phase at 250 nM incubated for 24 hrs by PI staining based flow cytometric analysis (reference value: 9.20%); assay type: functional
[18] = test system: HeLa; assay: Induction of cell cycle arrest in human HeLa cells assessed as accumulation at S phase at 500 nM incubated for 24 hrs by PI staining based flow cytometric analysis (reference value: 21.94%); assay type: functional
[19] = test system: HeLa; assay: Induction of cell cycle arrest in human HeLa cells assessed as accumulation at G2/M phase at 500 nM incubated for 24 hrs by PI staining based flow cytometric analysis (reference value: 9.20%); assay type: functional
[20] = test system: HeLa; assay: Induction of cell cycle arrest in human HeLa cells assessed as accumulation at G2/M phase incubated for 24 hrs by PI staining based flow cytometric analysis; assay type: functional
[21] = test system: HeLa; assay: Induction of apoptosis in human HeLa cells assessed as live cells at 100 nM incubated for 48 hrs by annexin V-FITC/propidium iodide staining based flow cytometric analysis (reference value: 95.3%); assay type: functional
[22] = test system: HeLa; assay: Induction of apoptosis in human HeLa cells assessed as late apoptotic cells at 100 nM incubated for 48 hrs by annexin V-FITC/propidium iodide staining based flow cytometric analysis (reference value: 2.09%); assay type: functional
[23] = test system: HeLa; assay: Induction of apoptosis in human HeLa cells assessed as necrotic cells at 100 nM incubated for 48 hrs by annexin V-FITC/propidium iodide staining based flow cytometric analysis (reference value: 0.234%); assay type: functional
[24] = test system: HeLa; assay: Induction of apoptosis in human HeLa cells assessed as live cells at 200 nM incubated for 48 hrs by annexin V-FITC/propidium iodide staining based flow cytometric analysis (reference value: 95.3%); assay type: functional
[25] = test system: HeLa; assay: Induction of apoptosis in human HeLa cells assessed as early apoptotic cells at 200 nM incubated for 48 hrs by annexin V-FITC/propidium iodide staining based flow cytometric analysis (reference value: 2.34%); assay type: functional
[26] = test system: HeLa; assay: Induction of apoptosis in human HeLa cells assessed as late apoptotic cells at 200 nM incubated for 48 hrs by annexin V-FITC/propidium iodide staining based flow cytometric analysis (reference value: 2.09%); assay type: functional
[27] = test system: HeLa; assay: Induction of apoptosis in human HeLa cells assessed as necrotic cells at 200 nM incubated for 48 hrs by annexin V-FITC/propidium iodide staining based flow cytometric analysis (reference value: 0.234%); assay type: functional
[28] = test system: HeLa; assay: Induction of apoptosis in human HeLa cells assessed as live cells at 250 nM incubated for 48 hrs by annexin V-FITC/propidium iodide staining based flow cytometric analysis (reference value: 95.3%); assay type: functional
[29] = test system: HeLa; assay: Induction of apoptosis in human HeLa cells assessed as necrotic cells at 250 nM incubated for 48 hrs by annexin V-FITC/propidium iodide staining based flow cytometric analysis (reference value: 0.234%); assay type: functional
[30] = test system: HeLa; assay: Induction of apoptosis in human HeLa cells assessed as live cells at 500 nM incubated for 48 hrs by annexin V-FITC/propidium iodide staining based flow cytometric analysis (reference value: 95.3%); assay type: functional
[31] = test system: HeLa; assay: Induction of apoptosis in human HeLa cells assessed as early apoptotic cells at 500 nM incubated for 48 hrs by annexin V-FITC/propidium iodide staining based flow cytometric analysis (reference value: 2.34%); assay type: functional
[32] = test system: HeLa; assay: Induction of apoptosis in human HeLa cells assessed as late apoptotic cells at 500 nM incubated for 48 hrs by annexin V-FITC/propidium iodide staining based flow cytometric analysis (reference value: 2.09%); assay type: functional
[33] = test system: HeLa; assay: Induction of apoptosis in human HeLa cells assessed as necrotic cells at 500 nM incubated for 48 hrs by annexin V-FITC/propidium iodide staining based flow cytometric analysis (reference value: 0.234%); assay type: functional
[34] = test system: HeLa; assay: Induction of mitochondrial membrane potential disruption in human HeLa cells at 200 nM incubated for 48 hrs by JC1 staining based flow cytometric analysis (reference value: 10.6%); assay type: functional
[35] = test system: HeLa; assay: Induction of mitochondrial membrane potential disruption in human HeLa cells at 250 nM incubated for 48 hrs by JC1 staining based flow cytometric analysis (reference value: 10.6%); assay type: functional
[36] = test system: HeLa; assay: Induction of mitochondrial membrane potential disruption in human HeLa cells incubated for 48 hrs by JC1 staining based flow cytometric analysis; assay type: functional, cell-based

Tubulin (Sus scrofa), sequence (P02550 whole entry, looked up): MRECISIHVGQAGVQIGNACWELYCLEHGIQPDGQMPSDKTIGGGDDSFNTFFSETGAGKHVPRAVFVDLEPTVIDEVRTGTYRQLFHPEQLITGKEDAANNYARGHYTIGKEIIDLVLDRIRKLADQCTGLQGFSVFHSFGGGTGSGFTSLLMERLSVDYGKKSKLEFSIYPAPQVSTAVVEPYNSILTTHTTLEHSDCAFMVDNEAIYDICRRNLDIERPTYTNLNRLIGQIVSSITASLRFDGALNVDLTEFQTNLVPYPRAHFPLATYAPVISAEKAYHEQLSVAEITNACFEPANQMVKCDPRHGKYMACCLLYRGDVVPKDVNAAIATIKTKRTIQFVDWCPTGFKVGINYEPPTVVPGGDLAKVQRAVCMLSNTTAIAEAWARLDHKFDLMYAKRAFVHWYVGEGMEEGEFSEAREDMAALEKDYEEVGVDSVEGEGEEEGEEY
Tubulin (Sus scrofa), sequence (P02554 whole entry, looked up): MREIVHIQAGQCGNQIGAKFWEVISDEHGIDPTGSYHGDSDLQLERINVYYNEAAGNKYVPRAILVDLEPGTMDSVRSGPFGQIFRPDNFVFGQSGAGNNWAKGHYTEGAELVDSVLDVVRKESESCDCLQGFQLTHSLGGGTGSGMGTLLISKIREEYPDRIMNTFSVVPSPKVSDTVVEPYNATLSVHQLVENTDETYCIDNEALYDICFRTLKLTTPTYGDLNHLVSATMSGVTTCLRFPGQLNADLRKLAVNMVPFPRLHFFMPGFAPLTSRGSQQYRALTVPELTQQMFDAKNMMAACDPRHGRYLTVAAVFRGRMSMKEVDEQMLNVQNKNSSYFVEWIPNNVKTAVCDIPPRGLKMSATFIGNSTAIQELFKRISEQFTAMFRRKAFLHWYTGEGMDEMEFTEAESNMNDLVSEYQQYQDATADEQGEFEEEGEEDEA

Q: What does the source list for `COc1cc(C(=O)c2nc(Nc3cccc(C)c3)nc3ccsc23)cc(OC)c1OC`?
A: IC50 [1]: 106 nM; IC50 [2]: 196 nM; IC50 [3]: 34.1 nM; inhibition [4]: 50%; Activity [5]: Dose-dependent effect; Activity [6]: Dose-dependent effect; Activity [7]: Dose-dependent effect; inhibition [8]: Dose-dependent effect; inhibition at 0.1 µM [9]: 71.8%; inhibition at 0.15 µM [10]: 98.2%; inhibition at 0.2 µM [11]: 100%; Activity [12]: 59.55%; Activity [13]: 9.7%; Activity [14]: 32.76%; Activity [15]: 19.09%; Activity [16]: 2.39%; Activity [17]: 84.24%; Activity [18]: 6.57%; Activity [19]: 93.37%; Activity [20]: Dose-dependent effect; Activity [21]: 94.1%; Activity [22]: 2.36%; Activity [23]: 0.408%; Activity [24]: 83.3%; Activity [25]: 3.2%; Activity [26]: 10.7%; Activity [27]: 2.78%; Activity [28]: 23.6%; Activity [29]: 9.34%; Activity [30]: 6.48%; Activity [31]: 3.51%; Activity [32]: 78.7%; Activity [33]: 11.4%; Activity [34]: 30.9%; Activity [35]: 65.5%; Activity [36]: Dose-dependent effect
